From ChEMBL document CHEMBL3885881, “DrugMatrix”

Species: Rattus norvegicus
Test: DrugMatrix - Regimen: Daily Repeat
Type: toxicity, organism-based, Sprague-Dawley
Set-up: regimen Daily Repeat, gender Male, age 6-8 weeks
Details: in vivo, iv, vehicle 100 % SALINE; for ABSOLUTE BASOPHIL / ABSOLUTE EOSINOPHIL / ABSOLUTE LYMPHOCYTE / ABSOLUTE MONOCYTE / ABSOLUTE SEGMENTED NEUTROPHIL / BASOPHIL / EOSINOPHIL / ERYTHROCYTE COUNT / HEMATOCRIT / HEMOGLOBIN / LEUKOCYTE COUNT / LYMPHOCYTE / MEAN CORPUSCULAR HEMOGLOBIN / MEAN CORPUSCULAR HEMOGLOBIN CONCENTRATION / MEAN CORPUSCULAR VOLUME / MONOCYTE / NEUTROPHIL / NUCLEATED RED BLOOD CELLS / PLATELET COUNT: tissue Blood; for ALANINE AMINOTRANSFERASE / ALBUMIN / ALKALINE PHOSPHATASE / ASPARTATE AMINOTRANSFERASE / BLOOD UREA NITROGEN / CARBON DIOXIDE / CHLORIDE / CHOLESTEROL / CREATINE PHOSPHOKINASE / CREATININE / GLUCOSE / LACTATE DEHYDROGENASE / LIPASE / PHOSPHORUS / POTASSIUM / SODIUM / TOTAL BILIRUBIN / TOTAL PROTEIN / URIC ACID: tissue Plasma
[1] = 0.01 mg/kg, 72 h, dose level Low, time 3 day
[2] = 0.01 mg/kg, 120 h, dose level Low, time 5 day
[3] = 15 mg/kg, 72 h, dose level High, time 3 day

CC(C)NCC(O)c1ccc(O)c(O)c1 (centres undefined) [ISOPROTERENOL]
ABSOLUTE BASOPHIL [1]: 0 CELLS/uL | ABSOLUTE EOSINOPHIL [1]: 134.67 CELLS/uL | ABSOLUTE LYMPHOCYTE [1]: 13411.33 CELLS/uL | ABSOLUTE MONOCYTE [1]: 299.67 CELLS/uL | ABSOLUTE SEGMENTED NEUTROPHIL [1]: 1854.33 CELLS/uL | BASOPHIL [1]: 0% | EOSINOPHIL [1]: 0.67% | ERYTHROCYTE COUNT [1]: 5.6 x10E6/uL | HEMATOCRIT [1]: 34.43% | HEMOGLOBIN [1]: 12.9 G/DL | LEUKOCYTE COUNT [1]: 15.7 x10E3/uL | LYMPHOCYTE [1]: 85.33% | MEAN CORPUSCULAR HEMOGLOBIN [1]: 23.03 pg | MEAN CORPUSCULAR HEMOGLOBIN CONCENTRATION [1]: 37.47 G/DL | MEAN CORPUSCULAR VOLUME [1]: 61.43 fL | MONOCYTE [1]: 2% | NEUTROPHIL [1]: 12% | NUCLEATED RED BLOOD CELLS [1]: 0 /100WBC | PLATELET COUNT [1]: 1265.33 x10E3/uL | ALANINE AMINOTRANSFERASE [1]: 39.67 u/L | ALBUMIN [1]: 4.4 G/DL | ALKALINE PHOSPHATASE [1]: 368 u/L | ASPARTATE AMINOTRANSFERASE [1]: 75 u/L | BLOOD UREA NITROGEN [1]: 14.33 mg/dL | CARBON DIOXIDE [1]: 25 mmol/L | CHLORIDE [1]: 104 MEQ/L | CHOLESTEROL [1]: 69.67 mg/dL | CREATINE PHOSPHOKINASE [1]: 196.33 u/L | CREATININE [1]: 0.24 mg/dL | GLUCOSE [1]: 149.67 mg/dL | LACTATE DEHYDROGENASE [1]: 289 u/L | LIPASE [1]: 9.67 u/L | PHOSPHORUS [1]: 13.47 mg/dL | POTASSIUM [1]: 6.71 MEQ/L | SODIUM [1]: 146.07 MEQ/L | TOTAL BILIRUBIN [1]: 0.2 mg/dL | TOTAL PROTEIN [1]: 5.97 G/DL | URIC ACID [1]: 2.17 mg/dL | ABSOLUTE BASOPHIL [2]: 0 CELLS/uL | ABSOLUTE EOSINOPHIL [2]: 0 CELLS/uL | ABSOLUTE LYMPHOCYTE [2]: 15742 CELLS/uL | ABSOLUTE MONOCYTE [2]: 224 CELLS/uL | ABSOLUTE SEGMENTED NEUTROPHIL [2]: 800.67 CELLS/uL | BASOPHIL [2]: 0% | EOSINOPHIL [2]: 0% | ERYTHROCYTE COUNT [2]: 5.33 x10E6/uL | HEMATOCRIT [2]: 32.33% | HEMOGLOBIN [2]: 12.57 G/DL | LEUKOCYTE COUNT [2]: 16.77 x10E3/uL | LYMPHOCYTE [2]: 94% | MEAN CORPUSCULAR HEMOGLOBIN [2]: 23.6 pg | MEAN CORPUSCULAR HEMOGLOBIN CONCENTRATION [2]: 38.9 G/DL | MEAN CORPUSCULAR VOLUME [2]: 60.67 fL | MONOCYTE [2]: 1.33% | NEUTROPHIL [2]: 4.67% | NUCLEATED RED BLOOD CELLS [2]: 0 /100WBC | PLATELET COUNT [2]: 1122.67 x10E3/uL | ALANINE AMINOTRANSFERASE [2]: 81 u/L | ALBUMIN [2]: 3.6 G/DL | ALKALINE PHOSPHATASE [2]: 310 u/L | ASPARTATE AMINOTRANSFERASE [2]: 65 u/L | BLOOD UREA NITROGEN [2]: 16.67 mg/dL | CARBON DIOXIDE [2]: 24 mmol/L | CHLORIDE [2]: 107.5 MEQ/L | CHOLESTEROL [2]: 61.33 mg/dL | CREATINE PHOSPHOKINASE [2]: 282.67 u/L | CREATININE [2]: 0.3 mg/dL | GLUCOSE [2]: 161.67 mg/dL | LACTATE DEHYDROGENASE [2]: 140 u/L | LIPASE [2]: 11 u/L | PHOSPHORUS [2]: 11.23 mg/dL | POTASSIUM [2]: 6.08 MEQ/L | SODIUM [2]: 146.4 MEQ/L | TOTAL BILIRUBIN [2]: 0.13 mg/dL | TOTAL PROTEIN [2]: 5.73 G/DL | URIC ACID [2]: 1.3 mg/dL | ABSOLUTE BASOPHIL [3]: 0 CELLS/uL | ABSOLUTE EOSINOPHIL [3]: 47.67 CELLS/uL | ABSOLUTE LYMPHOCYTE [3]: 15188.67 CELLS/uL | ABSOLUTE MONOCYTE [3]: 404 CELLS/uL | ABSOLUTE SEGMENTED NEUTROPHIL [3]: 1159.67 CELLS/uL | BASOPHIL [3]: 0% | EOSINOPHIL [3]: 0.33% | ERYTHROCYTE COUNT [3]: 5.66 x10E6/uL | HEMATOCRIT [3]: 36.93% | HEMOGLOBIN [3]: 13.6 G/DL | LEUKOCYTE COUNT [3]: 16.8 x10E3/uL | LYMPHOCYTE [3]: 90.67% | MEAN CORPUSCULAR HEMOGLOBIN [3]: 24 pg | MEAN CORPUSCULAR HEMOGLOBIN CONCENTRATION [3]: 36.83 G/DL | MEAN CORPUSCULAR VOLUME [3]: 65.2 fL | MONOCYTE [3]: 2.33% | NEUTROPHIL [3]: 6.67% | NUCLEATED RED BLOOD CELLS [3]: 0 /100WBC | PLATELET COUNT [3]: 1372 x10E3/uL | ALANINE AMINOTRANSFERASE [3]: 39 u/L | ALBUMIN [3]: 4.1 G/DL | ALKALINE PHOSPHATASE [3]: 370.67 u/L | ASPARTATE AMINOTRANSFERASE [3]: 73.67 u/L | BLOOD UREA NITROGEN [3]: 19.33 mg/dL | CARBON DIOXIDE [3]: 24.67 mmol/L | CHLORIDE [3]: 106 MEQ/L | CHOLESTEROL [3]: 80.33 mg/dL | CREATINE PHOSPHOKINASE [3]: 282.67 u/L | CREATININE [3]: 0.17 mg/dL | GLUCOSE [3]: 151.33 mg/dL | LACTATE DEHYDROGENASE [3]: 128.33 u/L | LIPASE [3]: 9 u/L | PHOSPHORUS [3]: 10.87 mg/dL
